Results: US11186606B2, “Compositions and methods of modulating the immune response by activating alpha protein kinase 1” (Shanghai Yao Yuan Biotechnology Co., Ltd., priority 2017, dated 2021)

Legend:
CT26 cells = test: mRNA expression in CT26 tumor tissue after intratumoral injection (qPCR); type: in vivo, BALB/c mice; settings: 4 hours post intratumoral injection, 2.5 μg, 250 ng, 50 ng
Experimental: We next asked whether H1b-ADP caused an increase in pro-inflammatory cytokines within the tumor. Tumor cells (2×10^5 per 100 μL CT26 cells) were inoculated subcutaneously into the right flank of BALB/c mice. 2.5 μg (n=2), 250 ng (n=2), 50 ng (n=2) of H1b-ADP or control (n=2) was intratumorally injected (20 uL) at day 7 post inoculation. 4 hours post-injection, tumor issues were dissected and harvested. Total RNA was isolated (TRIzol™, ThermoFisher) and cDNA was synthesized (PrimeScript™ RT reagent Kit, Takara) and amplified (AceQ™ qPCR SYBR™ Green Master Mix, Vazyme Biotech using a QuantStudio™ 7 Flex Real-Time PCR Systems (ThermoFisher) according to manufacturers' protocols.

TLR-9 = target: T1, TLR-9 (Homo sapiens, UniProt Q9NR96); settings: US 20100016250 by Nagata et al.; cited from earlier work
T1 sequence (Q9NR96 26-1032): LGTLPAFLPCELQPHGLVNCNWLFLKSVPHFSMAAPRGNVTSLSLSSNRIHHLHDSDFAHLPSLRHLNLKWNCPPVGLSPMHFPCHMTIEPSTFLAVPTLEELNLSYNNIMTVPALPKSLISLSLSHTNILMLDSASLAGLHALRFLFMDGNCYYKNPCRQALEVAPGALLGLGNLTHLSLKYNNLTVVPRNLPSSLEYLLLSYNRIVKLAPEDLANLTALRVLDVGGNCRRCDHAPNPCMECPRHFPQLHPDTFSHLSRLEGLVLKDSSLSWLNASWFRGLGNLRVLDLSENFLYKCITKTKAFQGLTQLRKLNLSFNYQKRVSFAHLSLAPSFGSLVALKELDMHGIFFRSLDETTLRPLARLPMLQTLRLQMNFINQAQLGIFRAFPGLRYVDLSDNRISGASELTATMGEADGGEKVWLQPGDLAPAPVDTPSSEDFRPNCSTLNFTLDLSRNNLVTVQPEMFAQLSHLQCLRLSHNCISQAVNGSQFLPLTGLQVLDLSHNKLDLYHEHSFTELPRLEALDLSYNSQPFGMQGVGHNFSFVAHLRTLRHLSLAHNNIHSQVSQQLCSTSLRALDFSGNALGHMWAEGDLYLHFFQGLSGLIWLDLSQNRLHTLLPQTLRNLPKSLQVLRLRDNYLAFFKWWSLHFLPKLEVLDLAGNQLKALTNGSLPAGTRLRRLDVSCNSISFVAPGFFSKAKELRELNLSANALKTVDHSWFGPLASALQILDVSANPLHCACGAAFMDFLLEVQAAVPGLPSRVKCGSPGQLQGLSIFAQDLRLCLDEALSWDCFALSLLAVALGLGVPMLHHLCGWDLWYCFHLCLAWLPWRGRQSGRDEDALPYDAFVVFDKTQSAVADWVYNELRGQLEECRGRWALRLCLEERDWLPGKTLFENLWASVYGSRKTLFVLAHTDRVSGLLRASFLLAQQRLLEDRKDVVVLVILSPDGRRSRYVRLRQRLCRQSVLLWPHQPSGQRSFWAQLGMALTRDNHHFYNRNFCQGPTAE

## Nc1ncnc2c1ncn2[C@@H]1O[C@H](COP(=O)(O)OP(=O)(O)O[C@@H]2O[C@H]([C@H](O)CO)[C@@H](O)[C@H](O)[C@@H]2O)[C@@H](O)[C@H]1O [Compound H1b-ADP, D-glycero-D-manno-heptose-1β-ADP]
CT26 cells
  PD-1 and PD-L1 expression: increased
  mRNA expression of cytotoxic T cell marker CD8, T-helper cell marker CD4, regulatory T cell marker Foxp3 and Th1 cell marker T-bet: increased
  mRNA expression of inflammatory cytokine IL-1b, Tnfa, Ifn gamma, and IL-6, and chemokine Cxcl1: increased
TLR-9
  TLR-9 agonist activity: TLR-9 agonist
